Results on 23 molecules are retold here after US12600714B2, “Substituted pyrazinecarboxamide compounds for treating diseases related to EGFR mutation” (WIGEN BIOMEDICINE TECHNOLOGY (SHANGHAI) CO., LTD., priority 2020, dated 2026).

A value given as a limit tells only on which side of the number the result lay.

The test system of test [1] is EGFR (del19/T790M/C797S). Description: HTRF inhibitory activity assay against EGFR (del19/T790M/C797S) enzyme. The format is biochemical. The gist of the method: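 Wild-type or mutant EGFR preincubated with serially diluted compound 10 min at 28 °C, then reacted 40 min at room temperature with biotinylated TK substrate and ATP. Phosphorylation detected by HTRF (Eu-cryptate anti-TK antibody, streptavidin-XL665, 60 min), 665/615 nm ratio; % inhibition and IC50 vs control.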
In general terms: TR-FRET usually uses a lanthanide donor and a delayed reading to cut background.

In test [2] the target is EGFR (L858R/T790M/C797S) (Homo sapiens, UniProt P00533, C797S/L858R/T790M). Description: HTRF inhibitory activity assay against EGFR (L858R/T790M/C797S) enzyme. The note with it: read-out: EGFR (L858R/T790M/C797S) inhibition (%) (0.3 nM compound). The format is biochemical. Here is the method:
(§1) Inhibitory Activity Assay of the Compounds Disclosed Herein Against EGFR (del19/T790M/C797S), EGFR (L858R/T790M/C797S) or EGFR (WT) Enzymes
(§2) The inhibitory effects of the compounds against EGFR (del19/T790M/C797S), EGFR (L858R/T790M/C797S) or EGFR (WT) enzyme activity was determined by using HTRF. The procedures are as follows:
(§3) The WT or mutant EGFR proteins were incubated with a serially diluted compounds at 28° C. for 10 min followed by addition of biotin-labeled general tyrosine kinase (TK) substrate and ATP. The mixture was incubated at room temperature for 40 min for reaction. After the termination of the reaction, an Eu3+-Cryptate-labeled antibody against TK and streptavidin-XL665 were added and the mixture was incubated at room temperature for 60 min. The luminescences at 615 nm and 665 nm were detected and the ratio of 665/615 was calculated to quantify the level of TK substrate phosphorylation. Inhibition % and IC50 of the compounds were calculated relative to the control group.

Test [3] has as its target EGFR (WT) (Homo sapiens, UniProt P00533). Description: HTRF inhibitory activity assay against EGFR (WT) enzyme. The format is biochemical. As for the experimental part: as §1, §2, §3
The target of test [4] is Ba/F3 (EGFR^del19/T790M/C797S) triple-mutant cells (Homo sapiens, UniProt P00533, T790M/C797S, cells depend on it, form not given). The experiment in a line: Antiproliferative activity against Ba/F3 (EGFR del19/T790M/C797S) triple-mutant cells, Cell Titer Glow. The format is cell-based. The note with it: three days after addition of compounds; read-out: Antiproliferative activity BaF3(EGFR^del19/T790M/C797S) IC50. The gist of the method:
(§4)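 Cells seeded (3000 Ba/F3 del19/T790M/C797S or 2000 A431 per well), compounds added after one day, serially diluted up to 500 nM for Ba/F3 and up to 10 μM for A431. Growth read by Cell Titer Glow after 3 days; IC50 from % growth inhibition.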
(ATP-based viability assays read luminescence as a measure of living cells.)

In test [5] the test system is A431 (EGFR WT) cells. Description: Antiproliferative activity against A431 (EGFR WT) cells, Cell Titer Glow. The format is cell-based. The following applies: Homo sapiens, A-431, 72 h; three days after addition of compounds; read-out: Antiproliferative activity A431 wild-type (WT) IC50. The gist of the method: as §4

Ba/F3 (EGFR^del19/T790M/C797S) triple-mutant cells, sequence (P00533 with tags, fused parts or gaps DEL746-750/T790M/C797S, form open): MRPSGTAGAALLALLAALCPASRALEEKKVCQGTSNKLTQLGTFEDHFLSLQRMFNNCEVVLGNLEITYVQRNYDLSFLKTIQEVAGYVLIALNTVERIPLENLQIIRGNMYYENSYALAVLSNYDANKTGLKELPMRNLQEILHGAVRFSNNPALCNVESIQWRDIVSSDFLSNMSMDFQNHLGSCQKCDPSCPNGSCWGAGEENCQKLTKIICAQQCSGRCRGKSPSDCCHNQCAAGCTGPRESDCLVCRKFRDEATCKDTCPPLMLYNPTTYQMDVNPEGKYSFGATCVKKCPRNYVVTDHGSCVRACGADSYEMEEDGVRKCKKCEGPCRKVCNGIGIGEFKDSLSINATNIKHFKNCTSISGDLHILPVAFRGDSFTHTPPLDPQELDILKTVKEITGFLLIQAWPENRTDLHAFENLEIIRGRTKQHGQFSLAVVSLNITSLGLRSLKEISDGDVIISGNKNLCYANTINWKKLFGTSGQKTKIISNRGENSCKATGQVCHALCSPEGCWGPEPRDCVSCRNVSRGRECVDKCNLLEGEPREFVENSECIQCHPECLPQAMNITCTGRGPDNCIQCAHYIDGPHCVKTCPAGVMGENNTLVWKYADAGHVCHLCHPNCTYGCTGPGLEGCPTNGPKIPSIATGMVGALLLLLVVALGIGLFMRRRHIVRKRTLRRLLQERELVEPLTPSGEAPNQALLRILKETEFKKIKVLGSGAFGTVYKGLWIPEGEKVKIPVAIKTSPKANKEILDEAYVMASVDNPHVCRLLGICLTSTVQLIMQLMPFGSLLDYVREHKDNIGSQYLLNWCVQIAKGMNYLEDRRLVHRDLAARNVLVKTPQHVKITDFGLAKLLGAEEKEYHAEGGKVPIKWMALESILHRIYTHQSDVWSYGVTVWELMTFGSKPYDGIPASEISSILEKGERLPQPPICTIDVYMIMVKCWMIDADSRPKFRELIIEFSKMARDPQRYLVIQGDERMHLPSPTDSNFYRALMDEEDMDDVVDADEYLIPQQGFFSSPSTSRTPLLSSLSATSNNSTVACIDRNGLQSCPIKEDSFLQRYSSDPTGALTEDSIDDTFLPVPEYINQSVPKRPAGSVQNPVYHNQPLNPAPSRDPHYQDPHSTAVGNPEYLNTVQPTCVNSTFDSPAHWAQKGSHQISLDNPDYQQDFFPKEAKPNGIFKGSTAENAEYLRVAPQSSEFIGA
EGFR (WT), sequence (P00533 25-1210): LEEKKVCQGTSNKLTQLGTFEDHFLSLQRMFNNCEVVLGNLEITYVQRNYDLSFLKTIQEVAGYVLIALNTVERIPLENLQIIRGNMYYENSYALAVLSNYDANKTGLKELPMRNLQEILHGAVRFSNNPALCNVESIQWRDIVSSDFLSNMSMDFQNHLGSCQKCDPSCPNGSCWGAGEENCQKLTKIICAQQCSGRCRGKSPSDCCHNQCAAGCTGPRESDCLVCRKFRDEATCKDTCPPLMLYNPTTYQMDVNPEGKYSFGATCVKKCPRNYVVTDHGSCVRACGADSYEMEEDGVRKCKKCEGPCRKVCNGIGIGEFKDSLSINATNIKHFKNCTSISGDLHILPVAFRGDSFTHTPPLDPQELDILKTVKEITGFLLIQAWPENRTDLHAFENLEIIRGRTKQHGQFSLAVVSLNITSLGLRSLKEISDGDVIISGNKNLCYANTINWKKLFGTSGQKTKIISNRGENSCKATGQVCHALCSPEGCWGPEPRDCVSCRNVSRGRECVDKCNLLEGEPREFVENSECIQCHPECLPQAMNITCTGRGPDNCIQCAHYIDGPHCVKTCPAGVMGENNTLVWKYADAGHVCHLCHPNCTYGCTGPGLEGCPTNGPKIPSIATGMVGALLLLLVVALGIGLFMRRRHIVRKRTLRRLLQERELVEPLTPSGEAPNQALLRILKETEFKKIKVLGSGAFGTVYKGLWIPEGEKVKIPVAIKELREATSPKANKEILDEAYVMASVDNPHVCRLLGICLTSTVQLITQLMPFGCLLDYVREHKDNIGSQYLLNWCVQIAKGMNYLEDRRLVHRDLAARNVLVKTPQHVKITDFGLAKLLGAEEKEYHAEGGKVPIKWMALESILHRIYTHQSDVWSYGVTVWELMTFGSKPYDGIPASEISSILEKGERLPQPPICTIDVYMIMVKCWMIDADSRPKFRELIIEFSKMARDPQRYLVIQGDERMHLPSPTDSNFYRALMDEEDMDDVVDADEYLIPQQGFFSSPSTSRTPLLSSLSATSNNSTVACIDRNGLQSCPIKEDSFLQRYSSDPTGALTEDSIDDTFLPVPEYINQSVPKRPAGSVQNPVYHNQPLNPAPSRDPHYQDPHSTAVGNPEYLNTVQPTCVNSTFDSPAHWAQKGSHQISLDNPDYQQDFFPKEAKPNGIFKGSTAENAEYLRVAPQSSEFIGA
EGFR (L858R/T790M/C797S), sequence (P00533 25-1210 T790M/C797S/L858R): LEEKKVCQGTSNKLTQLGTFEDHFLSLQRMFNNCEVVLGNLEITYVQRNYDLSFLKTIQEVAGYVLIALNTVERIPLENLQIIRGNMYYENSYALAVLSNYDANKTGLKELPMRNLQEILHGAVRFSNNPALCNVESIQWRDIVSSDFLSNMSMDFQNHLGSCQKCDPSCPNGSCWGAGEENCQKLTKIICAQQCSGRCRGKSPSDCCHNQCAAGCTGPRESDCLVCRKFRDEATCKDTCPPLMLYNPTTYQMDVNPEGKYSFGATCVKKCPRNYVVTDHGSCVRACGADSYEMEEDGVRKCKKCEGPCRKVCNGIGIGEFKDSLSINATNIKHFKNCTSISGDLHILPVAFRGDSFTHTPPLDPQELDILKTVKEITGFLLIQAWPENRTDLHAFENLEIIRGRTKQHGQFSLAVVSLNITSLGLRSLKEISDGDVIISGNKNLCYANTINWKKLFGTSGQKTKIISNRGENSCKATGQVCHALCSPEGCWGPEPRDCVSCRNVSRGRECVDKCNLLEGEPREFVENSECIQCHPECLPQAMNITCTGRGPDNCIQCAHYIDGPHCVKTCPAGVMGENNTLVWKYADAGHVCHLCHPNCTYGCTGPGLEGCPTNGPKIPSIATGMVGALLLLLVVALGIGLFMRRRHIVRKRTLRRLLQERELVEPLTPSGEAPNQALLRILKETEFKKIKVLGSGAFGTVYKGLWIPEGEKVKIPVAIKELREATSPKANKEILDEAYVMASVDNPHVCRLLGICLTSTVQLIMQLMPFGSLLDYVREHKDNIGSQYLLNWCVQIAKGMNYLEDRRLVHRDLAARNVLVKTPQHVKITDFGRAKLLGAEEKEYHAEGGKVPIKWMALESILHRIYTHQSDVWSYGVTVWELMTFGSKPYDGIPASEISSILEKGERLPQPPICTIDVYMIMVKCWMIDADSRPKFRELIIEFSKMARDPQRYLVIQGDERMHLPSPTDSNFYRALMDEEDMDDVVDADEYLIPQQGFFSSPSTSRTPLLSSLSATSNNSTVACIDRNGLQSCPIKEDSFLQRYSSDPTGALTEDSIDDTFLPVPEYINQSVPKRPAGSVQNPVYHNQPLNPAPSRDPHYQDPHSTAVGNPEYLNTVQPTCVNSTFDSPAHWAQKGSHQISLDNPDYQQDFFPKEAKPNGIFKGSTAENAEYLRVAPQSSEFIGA

One may read the IC50 as the midpoint of a concentration-inhibition curve. Turning to `CN1CCN(C2CCN(c3ccc(Nc4nc(NC5CCOCC5)c(-c5ccccc5)nc4C(N)=O)cc3)CC2)CC1` [compound 1], the “EGFR (del19/T790M/C797S) inhibition (%) (0.3 nM compound)” value (from here on “EGFR (del19/T790M/C797S) inhibition (%)”) in test [1] is “+ (+ indicates an inhibition less than or equal to 20%)”. Also, the inhibition at 0.0003 µM in test [2] is no more than 20%. Also, the values for the IC50 in test [3] and in test [5] were greater than 300 nM and 2500 nM, respectively. For the same molecule, the GI50 in test [4] was 236 nM.
With `CN1CCN(C2CCN(c3ccc(Nc4nc(O[C@H]5CCN(C)C5)c(-c5ccccc5)nc4C(N)=O)cc3)CC2)CC1` [compound 2], the “EGFR (del19/T790M/C797S) inhibition (%)” value in test [1] is recorded as “+ (+ indicates an inhibition less than or equal to 20%)”. The same molecule returned a concentration for half-maximal inhibition (IC50) in test [3] greater than 100 nM.
`CN1CCC(Oc2nc(Nc3ccc(N4CCC(N5CCN(C)CC5)CC4)cc3)c(C(N)=O)nc2-c2ccccc2)CC1` [compound 4]: the “EGFR (del19/T790M/C797S) inhibition (%)” value in test [1] is on record as “+ (+ indicates an inhibition less than or equal to 20%)”. Besides, in test [2], the inhibition at 0.0003 µM is no more than 20%. The half-maximal inhibitory concentration (IC50) in test [3] was greater than 100 nM; in test [5], 1700 nM. In addition, in test [4], the GI50 was determined as 295 nM.
For `CN1CCN(C2CCN(c3ccc(Nc4nc(Nc5ccccc5)c(-c5ccccc5)nc4C(N)=O)cc3)CC2)CC1` [compound 5], the “EGFR (del19/T790M/C797S) inhibition (%)” value in test [1] is recorded as “+ (+ indicates an inhibition less than or equal to 20%)”. In test [2], the inhibition at 0.0003 µM was no more than 20%. In test [3], this molecule had an IC50 greater than 100 nM.
Regarding `CN1CCN(C2CCN(c3ccc(Nc4nc(N(C)C)c(-c5ccccc5)nc4C(N)=O)cc3)CC2)CC1` [compound 10], the “EGFR (del19/T790M/C797S) inhibition (%)” value in test [1] was “++ (++ indicates an inhibition from 20% to 50%)”. In test [3], this molecule returned an IC50 greater than 300 nM.
For the molecule `CC(C)Nc1nc(Nc2ccc(N3CCC(N4CCN(C)CC4)CC3)cc2)c(C(N)=O)nc1-c1ccccc1` [compound 11], in test [1], the “EGFR (del19/T790M/C797S) inhibition (%)” value is on record as “++ (++ indicates an inhibition from 20% to 50%)”. Further, the results for the concentration for half-maximal inhibition (IC50) in test [3] and in test [5] were greater than 300 nM and 540 nM, respectively. Further, the GI50 in test [4] was 107 nM.
Turning to `CNc1nc(Nc2ccc(N3CCC(N4CCN(C)CC4)CC3)cc2)c(C(N)=O)nc1-c1ccccc1` [compound 13], the “EGFR (del19/T790M/C797S) inhibition (%)” value in test [1] is reported as “+ (+ indicates an inhibition less than or equal to 20%)”. Moreover, the IC50 in test [3] is greater than 300 nM; in test [5] it was 1300 nM. For the same molecule, the GI50 in test [4] turned out to be 197 nM.
For `CC(C)Oc1nc(Nc2ccc(N3CCC(N4CCN(C)CC4)CC3)cc2)c(C(N)=O)nc1-c1ccccc1` [compound 14] the same measures were “+ (+ indicates an inhibition less than or equal to 20%)”, greater than 300 nM, 950 nM and 113 nM.
As to `CN1CCN(C2CCN(c3ccc(Nc4nc(NCC(C)(C)O)c(-c5ccccc5)nc4C(N)=O)cc3)CC2)CC1` [compound 21], the “EGFR (del19/T790M/C797S) inhibition (%)” value in test [1] is listed as “++ (++ indicates an inhibition from 20% to 50%)”. Moreover, the IC50 in test [3] is greater than 300 nM; in test [5], 520 nM. The GI50 in test [4] was found to be 48 nM.
`CN1CCN(C2CCN(c3ccc(Nc4nc(NC5CCOCC5)c(-c5ccncc5)nc4C(N)=O)cc3)CC2)CC1` [compound 39, 3-((4-(4-(4-methylpiperazin-1-yl)piperidin-1-yl)phenyl)amino)-6-(pyridin-4-yl)-5-((tetrahydro-2H-pyran-4-yl)amino)pyrazine-2-carboxamide]: the “EGFR (del19/T790M/C797S) inhibition (%)” value in test [1] is “+++ (+++ indicates an inhibition greater than 50%.)”. Also, the inhibition at 0.0003 µM in test [2] was greater than 50%. Moreover, the concentration for half-maximal inhibition (IC50) in test [3] was greater than 300 nM; in test [5], 340 nM. In test [4], the GI50 is 29 nM.
For the molecule `CN1CCN(C2CCN(c3ccc(Nc4nc(NC5CCOCC5)c(-c5ccccc5C#N)nc4C(N)=O)cc3)CC2)CC1` [compound 52], in test [1], the “EGFR (del19/T790M/C797S) inhibition (%)” value is on record as “+++ (+++ indicates an inhibition greater than 50%.)”. In test [3], the IC50 was greater than 300 nM.
On to `CN1CCN(C2CCN(c3ccc(Nc4nc(NC5CCOCC5)c(-c5cc[nH]n5)nc4C(N)=O)cc3)CC2)CC1` [compound 55, 3-((4-(4-(4-methylpiperazin-1-yl)piperidin-1-yl)phenyl)amino)-6-(1H-pyrazol-3-yl)-5-((tetrahydro-2H-pyran-4-yl)amino)pyrazine-2-carboxamide], for which the “EGFR (del19/T790M/C797S) inhibition (%)” value in test [1] is given as “+++ (+++ indicates an inhibition greater than 50%.)”. The inhibition at 0.0003 µM in test [2] was no more than 20%. For the same molecule, the IC50 in test [3] is greater than 300 nM; in test [5], 70 nM. The GI50 in test [4] came to 16 nM.
The matching figures for `CN1CCN(C2CCN(c3ccc(Nc4nc(NC5CCOCC5)c(-c5cn[nH]c5)nc4C(N)=O)cc3)CC2)CC1` [compound 57]: “++ (++ indicates an inhibition from 20% to 50%)”, 20 to 50%, greater than 300 nM, 320 nM and 79 nM.
As for `CN(C)C1CCN(c2ccc(Nc3nc(NC4CCOCC4)c(-c4ccccc4)nc3C(N)=O)cc2)CC1` [compound 59], the “EGFR (del19/T790M/C797S) inhibition (%)” value in test [1] is “+ (+ indicates an inhibition less than or equal to 20%)”. Besides, the concentration for half-maximal inhibition (IC50) in test [3] is greater than 300 nM; in test [5], 1400 nM. The GI50 in test [4] is 72 nM.
In the case of `COc1ccncc1-c1nc(C(N)=O)c(Nc2ccc(N3CCC(N4CCN(C)CC4)CC3)cc2)nc1NC1CCOCC1` [compound 83], the “EGFR (del19/T790M/C797S) inhibition (%)” value in test [1] is reported as “++ (++ indicates an inhibition from 20% to 50%)”. Also, the inhibition at 0.0003 µM in test [2] was 20 to 50%. For the same molecule, the GI50 in test [4] came out at 233 nM. Besides, in test [5], the half-maximal inhibitory concentration (IC50) was found to be 750 nM.
Take `Cc1cc(Nc2nc(NC3CCOCC3)c(-c3ccncc3)nc2C(N)=O)ccc1N1CCC(N2CCN(C)CC2)CC1` [compound 114]: the “EGFR (del19/T790M/C797S) inhibition (%)” value in test [1] was “++ (++ indicates an inhibition from 20% to 50%)”. In addition, in test [2], the inhibition at 0.0003 µM is greater than 50%. For the same molecule, in test [4], the GI50 came to 27 nM. Further, the IC50 in test [5] is 970 nM.
The matching figures for `CN1CCC(c2ccc(Nc3nc(NC4CCOCC4)c(-c4ccncc4)nc3C(N)=O)cc2)CC1` [compound 121]: “+++ (+++ indicates an inhibition greater than 50%.)”, greater than 50%, 70 nM and 590 nM.
Consider `CO[C@H]1C[C@H](Nc2nc(Nc3ccc(N4CCC(N5CCN(C)CC5)CC4)cc3)c(C(N)=O)nc2-c2ccccc2)C1` [compound 125], for which the “EGFR (del19/T790M/C797S) inhibition (%)” value in test [1] is “++ (++ indicates an inhibition from 20% to 50%)”. The inhibition at 0.0003 µM in test [2] fell in the range of 20 to 50%. The GI50 in test [4] came to 99 nM. Besides, in test [5], the IC50 was found to be 650 nM.
The matching figures for `CN1CCN(C2CCN(c3ccc(Nc4nc(NC5CS(=O)(=O)C5)c(-c5ccccc5)nc4C(N)=O)cc3)CC2)CC1` [compound 126]: “+ (+ indicates an inhibition less than or equal to 20%)”, no more than 20%, 248 nM and 2600 nM.
Regarding `CCc1cc(Nc2nc(NC3CC4(COC4)C3)c(-c3cc[nH]n3)nc2C(N)=O)ccc1N1CCC(N2CCN(C)CC2)CC1` [compound 503], the “EGFR (del19/T790M/C797S) inhibition (%)” value in test [1] was “+++ (+++ indicates an inhibition greater than 50%.)”. Moreover, the inhibition at 0.0003 µM in test [2] was no more than 20%. The half-inhibitory concentration (IC50) was found to be 10.2 nM in test [3] and 660 nM in test [5]. In test [4], the GI50 turned out to be 61 nM.
For `CC(C)Nc1nc(Nc2ccc(N3CCC(N4CCN(C)CC4)CC3)cc2)c(C(N)=O)nc1-c1cccc2[nH]ccc12` [compound 521] the same measures were “+++ (+++ indicates an inhibition greater than 50%.)”, greater than 50%, 0.27 nM, 50 nM and 4 nM.
For the molecule `CN1CCN(C2CCN(c3ccc(Nc4nc(NC5CC5)c(-c5cccc6[nH]ccc56)nc4C(N)=O)cc3)CC2)CC1` [compound 522], the “EGFR (del19/T790M/C797S) inhibition (%)” value in test [1] was “+++ (+++ indicates an inhibition greater than 50%.)”. The inhibition at 0.0003 µM in test [2] was greater than 50%. The half-maximal inhibitory concentration (IC50) was 0.22 nM in test [3] and 30 nM in test [5]. The GI50 in test [4] came out at 2 nM.
Take `CN1CCN(C2CCN(c3ccc(Nc4nc(NC5COC5)c(-c5cccc6[nH]ccc56)nc4C(N)=O)cc3)CC2)CC1` [compound 594]: in test [1], the “EGFR (del19/T790M/C797S) inhibition (%)” value is recorded as “+++ (+++ indicates an inhibition greater than 50%.)”. Besides, the inhibition at 0.0003 µM in test [2] is greater than 50%. For the same molecule, in test [4], the GI50 worked out at 13 nM. Moreover, the IC50 in test [5] was 70 nM.
